Broadly, the IC50 is the midpoint of a concentration-inhibition curve.

One experiment addresses Butyrylcholinesterase (Rattus norvegicus, UniProt Q9JKC1).
Another experiment addresses T1, Acetylcholinesterase (Rattus norvegicus, UniProt P37136).
T1 sequence (P37136 whole entry): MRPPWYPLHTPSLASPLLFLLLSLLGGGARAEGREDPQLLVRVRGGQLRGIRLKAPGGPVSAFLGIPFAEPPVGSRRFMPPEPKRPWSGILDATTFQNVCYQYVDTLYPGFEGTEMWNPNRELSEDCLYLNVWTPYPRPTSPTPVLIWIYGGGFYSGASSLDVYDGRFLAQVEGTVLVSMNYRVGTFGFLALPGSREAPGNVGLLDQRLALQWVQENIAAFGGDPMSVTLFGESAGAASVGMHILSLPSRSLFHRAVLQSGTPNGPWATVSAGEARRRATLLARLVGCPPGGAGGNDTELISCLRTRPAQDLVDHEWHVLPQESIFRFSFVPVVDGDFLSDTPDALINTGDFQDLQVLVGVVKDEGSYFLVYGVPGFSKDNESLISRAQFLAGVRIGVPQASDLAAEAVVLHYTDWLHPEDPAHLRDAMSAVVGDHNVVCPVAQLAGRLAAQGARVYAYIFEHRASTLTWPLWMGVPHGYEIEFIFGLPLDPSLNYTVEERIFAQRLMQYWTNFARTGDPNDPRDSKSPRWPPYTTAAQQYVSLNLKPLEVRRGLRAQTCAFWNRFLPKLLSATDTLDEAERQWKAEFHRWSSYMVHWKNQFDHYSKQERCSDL

Chain of Butyrylcholinesterase (Q9JKC1 whole entry): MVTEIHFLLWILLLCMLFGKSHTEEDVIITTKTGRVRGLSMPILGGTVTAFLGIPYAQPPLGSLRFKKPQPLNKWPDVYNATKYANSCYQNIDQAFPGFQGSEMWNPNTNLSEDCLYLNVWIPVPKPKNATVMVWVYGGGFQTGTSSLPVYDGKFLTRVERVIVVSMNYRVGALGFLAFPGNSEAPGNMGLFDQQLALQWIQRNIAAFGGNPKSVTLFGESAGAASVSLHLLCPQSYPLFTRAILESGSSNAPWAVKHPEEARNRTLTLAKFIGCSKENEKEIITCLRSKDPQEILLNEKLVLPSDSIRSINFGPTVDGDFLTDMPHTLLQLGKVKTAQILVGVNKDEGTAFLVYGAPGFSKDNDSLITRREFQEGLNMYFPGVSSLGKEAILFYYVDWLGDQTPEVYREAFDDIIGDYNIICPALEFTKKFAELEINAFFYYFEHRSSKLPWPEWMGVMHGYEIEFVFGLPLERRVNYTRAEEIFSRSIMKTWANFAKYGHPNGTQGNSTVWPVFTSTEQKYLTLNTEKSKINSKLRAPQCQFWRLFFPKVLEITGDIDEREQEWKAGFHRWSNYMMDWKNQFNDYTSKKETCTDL
Description for Acetylcholinesterase: Inhibitory potency against acetylcholinesterase (AChE) of rat cortex homogenate with ethopropazine as BChE inhibitor
Description for Butyrylcholinesterase: Inhibitory potency against rat serum Butyrylcholinesterase with BW284c51 as AChE inhibitor

Take `O=c1ccc2c([nH]1)CCCC2NCCCCCCCCCCCCNc1c2c(nc3ccccc13)CCCC2` (racemic): the IC50 against Butyrylcholinesterase was 434 nM; against Acetylcholinesterase, 112 nM.
In the case of `Oc1ccc2c(n1)CCCC2NCCCCCCCNc1c2c(nc3ccccc13)CCCC2` (racemic), the IC50 against Butyrylcholinesterase amounted to 233 nM; on Acetylcholinesterase it was 53.1 nM.
For the molecule `Oc1ccc2c(n1)CCCC2NCCCCCCNc1c2c(nc3ccccc13)CCCC2` (racemic), the 50% inhibitory concentration (IC50) at Butyrylcholinesterase was 223 nM; on Acetylcholinesterase, 37.1 nM.
Take `O=c1ccc2c([nH]1)CCCC2NCCCCCCCCNc1c2c(nc3ccccc13)CCCC2` (racemic): the figures for the IC50 at Butyrylcholinesterase and against Acetylcholinesterase were 166 nM and 26.2 nM, respectively.
Taken in the same sequence, the figures for `Oc1ccc2c(n1)CCCC2NCCCCCNc1c2c(nc3ccccc13)CCCC2` (racemic) were 220 nM and 122 nM.
As to `O=c1ccc2c([nH]1)CCCC2NCCCCCCCCCCNc1c2c(nc3ccccc13)CCCC2` (racemic), the IC50 at Butyrylcholinesterase is 81.5 nM.
On to `Oc1ccc2c(n1)CCCC2NCCCCNc1c2c(nc3ccccc13)CCCC2` (racemic), for which the figures for the IC50 against Butyrylcholinesterase and against Acetylcholinesterase were 228 nM and 42.6 nM, respectively.
On the same counts, the results for `Oc1ccc2c(n1)CCCC2NCCCCCCCCCNc1c2c(nc3ccccc13)CCCC2` (racemic) are 150 nM and 36.3 nM.
